Measurements from ChEMBL document CHEMBL1201862, “PubChem BioAssay data set” (2004).
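1) Cells in 96-well plates. 2) Compound, 48 h, 5 concentrations. 3) Linear interpolation between surrounding doses. 4) Unreached endpoint = highest concentration. GI50 = concentration required for 50% inhibition of growth.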 Active and inactive are the calls of the source. Cut-off read from the data, not from the text of the source: active = GI50 up to about 1.1 µM and inactive = higher.

Key:
Experiment in all cases: NCI tumour cell line growth inhibition, 48 h
786-0 = tested on: 786-0
A498 = tested on: A498
A549 = tested on: A549
ACHN = tested on: ACHN
CAKI-1 = tested on: CAKI-1
CCRF-CEM = tested on: CCRF-CEM
COLO 205 = tested on: COLO 205
DU-145 = tested on: DU-145
HCC 2998 = tested on: HCC 2998
HCT-116 = tested on: HCT-116
HCT-15 = tested on: HCT-15
HL-60 = tested on: HL-60
HOP-62 = tested on: HOP-62
HOP-92 = tested on: HOP-92
HT-29 = tested on: HT-29
Hs-578T = tested on: Hs-578T
IGROV-1 = tested on: IGROV-1
K562 = tested on: K562
KM12 = tested on: KM12
LOX IMVI = tested on: LOX IMVI
M14 = tested on: M14
MCF7 = tested on: MCF7
MDA-MB-231 = tested on: MDA-MB-231
MDA-MB-435 = tested on: MDA-MB-435
MDA-N = tested on: MDA-N
MOLT-4 = tested on: MOLT-4
Malme-3M = tested on: Malme-3M
NCI-H226 = tested on: NCI-H226
NCI-H23 = tested on: NCI-H23
NCI-H460 = tested on: NCI-H460
NCI-H522 = tested on: NCI-H522
NCI/ADR-RES = tested on: NCI/ADR-RES
OVCAR-4 = tested on: OVCAR-4
OVCAR-5 = tested on: OVCAR-5
OVCAR-8 = tested on: OVCAR-8
PC-3 = tested on: PC-3
RPMI-8226 = tested on: RPMI-8226
RXF 393 = tested on: RXF 393
SF-268 = tested on: SF-268
SF-295 = tested on: SF-295
SF-539 = tested on: SF-539
SK-MEL-28 = tested on: SK-MEL-28
SK-MEL-2 = tested on: SK-MEL-2
SK-MEL-5 = tested on: SK-MEL-5
SK-OV-3 = tested on: SK-OV-3
SN12C = tested on: SN12C
SNB-19 = tested on: SNB-19
SNB-75 = tested on: SNB-75
SR = tested on: SR
SW-620 = tested on: SW-620
T47D = tested on: T47D
TK-10 = tested on: TK-10
U-251 = tested on: U-251
UACC-257 = tested on: UACC-257
UACC-62 = tested on: UACC-62
UO-31 = tested on: UO-31
OVCAR-3 = tested on: OVCAR-3

For `CCN(CCCl)c1cc(CN(C)C)cc(NC(=O)c2cc(C(=O)Nc3cc(CN(C)C)cc(N(CC)CCCl)c3)n(C)n2)c1`, the GI50 (786-0) was < 0.01 µM (active), the GI50 (A498) was 2 µM (inactive) and the GI50 (A549) was 0.136 µM (active). The GI50 (ACHN) was 0.0828 µM (active), the GI50 (CAKI-1) was 0.557 µM (active) and the GI50 (CCRF-CEM) was < 0.01 µM (active). For the same molecule, the GI50 (COLO 205) was 0.721 µM (active), the GI50 (DU-145) was 0.389 µM (active) and the GI50 (HCC 2998) was 0.755 µM (active). For the same molecule, the GI50 (HCT-116) was 0.227 µM (active), the GI50 (HCT-15) was 2.31 µM and the GI50 (HL-60) was 0.0115 µM (active). The GI50 (HOP-62) was 0.121 µM (active), the GI50 (HOP-92) was 1.11 µM (active) and the GI50 (HT-29) was 0.136 µM (active). The GI50 (Hs-578T) was 0.197 µM (active), the GI50 (IGROV-1) was 0.136 µM (active) and the GI50 (K562) was 0.124 µM (active). For the same molecule, the GI50 (KM12) was 0.236 µM (active), the GI50 (LOX IMVI) was 0.0685 µM (active) and the GI50 (M14) was 0.381 µM (active). The GI50 (MCF7) was < 0.01 µM (active), the GI50 (MDA-MB-231) was 1.53 µM (inactive) and the GI50 (MDA-MB-435) was 0.213 µM (active). For the same molecule, the GI50 (MDA-N) was 1.22 µM (inactive), the GI50 (MOLT-4) was < 0.01 µM (active) and the GI50 (Malme-3M) was 1.49 µM (inactive). For the same molecule, the GI50 (NCI-H226) was 1.43 µM (inactive), the GI50 (NCI-H23) was 0.284 µM (active) and the GI50 (NCI-H460) was < 0.01 µM (active). For the same molecule, the GI50 (NCI-H522) was 0.115 µM (active), the GI50 (NCI/ADR-RES) was 10.3 µM (inactive) and the GI50 (OVCAR-4) was 0.485 µM (active). The GI50 (OVCAR-5) was 2.32 µM (inactive), the GI50 (OVCAR-8) was 0.143 µM (active) and the GI50 (PC-3) was 0.164 µM (active). For the same molecule, the GI50 (RPMI-8226) was 0.24 µM (active), the GI50 (RXF 393) was 0.449 µM (active) and the GI50 (SF-268) was 0.065 µM (active). The GI50 (SF-295) was 0.78 µM (active), the GI50 (SF-539) was 0.338 µM (active) and the GI50 (SK-MEL-28) was 1.48 µM (inactive). For the same molecule, the GI50 (SK-MEL-2) was 1.55 µM (inactive), the GI50 (SK-MEL-5) was 1.09 µM (active) and the GI50 (SK-OV-3) was 0.331 µM (active). The GI50 (SN12C) was 0.3 µM (active), the GI50 (SNB-19) was 0.0658 µM (active) and the GI50 (SNB-75) was 0.271 µM (active). The GI50 (SR) was 0.0119 µM (active), the GI50 (SW-620) was 0.0962 µM (active) and the GI50 (T47D) was 0.508 µM (active). For the same molecule, the GI50 (TK-10) was 2.69 µM (inactive), the GI50 (U-251) was 0.0923 µM (active) and the GI50 (UACC-257) was 1.37 µM (inactive). For the same molecule, the GI50 (UACC-62) was 0.219 µM (active) and the GI50 (UO-31) was 3.06 µM (inactive).
For `CC(=O)c1c(-c2ccc(Cl)cc2)c(C#N)c(=S)n(C2OC(CO)C(O)C(O)C2O)c1C` (stereo not drawn), the GI50 (786-0) was 63.2 µM (inactive), the GI50 (A498) was 50.7 µM (inactive) and the GI50 (A549) was 71 µM (inactive). The GI50 (ACHN) was 42.3 µM (inactive), the GI50 (CCRF-CEM) was 25.9 µM (inactive) and the GI50 (COLO 205) was 32.5 µM (inactive). The GI50 (DU-145) was > 100 µM (inactive), the GI50 (HCC 2998) was > 100 µM (inactive) and the GI50 (HCT-116) was 47 µM (inactive). The GI50 (HCT-15) was 82 µM, the GI50 (HL-60) was 26.9 µM (inactive) and the GI50 (HOP-62) was 65 µM (inactive). The GI50 (HOP-92) was 13.1 µM (inactive), the GI50 (HT-29) was 30.1 µM (inactive) and the GI50 (IGROV-1) was 35.6 µM (inactive). For the same molecule, the GI50 (K562) was 32.4 µM (inactive), the GI50 (KM12) was 40.4 µM (inactive) and the GI50 (LOX IMVI) was 30.1 µM (inactive). The GI50 (M14) was 57.7 µM (inactive), the GI50 (MDA-MB-231) was 37 µM (inactive) and the GI50 (MDA-MB-435) was 37.8 µM (inactive). For the same molecule, the GI50 (MDA-N) was 30.8 µM (inactive), the GI50 (MOLT-4) was 21.6 µM (inactive) and the GI50 (Malme-3M) was 67 µM (inactive). The GI50 (NCI-H226) was 58.3 µM (inactive), the GI50 (NCI-H23) was 45.4 µM (inactive) and the GI50 (NCI-H460) was 37 µM (inactive). The GI50 (NCI-H522) was 32.3 µM (inactive), the GI50 (NCI/ADR-RES) was > 100 µM (inactive) and the GI50 (OVCAR-3) was 30.8 µM (inactive). For the same molecule, the GI50 (OVCAR-4) was 38.5 µM (inactive), the GI50 (OVCAR-5) was > 100 µM (inactive) and the GI50 (OVCAR-8) was > 100 µM (inactive). The GI50 (PC-3) was 31.5 µM (inactive), the GI50 (RXF 393) was 98.2 µM (inactive) and the GI50 (SF-268) was 53.3 µM (inactive). The GI50 (SF-295) was 54.6 µM (inactive), the GI50 (SF-539) was 46.7 µM (inactive) and the GI50 (SK-MEL-28) was 34.1 µM (inactive). For the same molecule, the GI50 (SK-MEL-2) was 28.2 µM (inactive), the GI50 (SK-MEL-5) was 37.2 µM (inactive) and the GI50 (SK-OV-3) was 82.8 µM (inactive). For the same molecule, the GI50 (SN12C) was 52.6 µM (inactive), the GI50 (SNB-19) was 31 µM (inactive) and the GI50 (SNB-75) was > 100 µM (inactive). The GI50 (SR) was 30.3 µM (inactive), the GI50 (T47D) was 49.3 µM (inactive) and the GI50 (TK-10) was 70.6 µM (inactive). For the same molecule, the GI50 (U-251) was 36.8 µM (inactive), the GI50 (UACC-257) was 82.4 µM (inactive) and the GI50 (UACC-62) was 22.3 µM (inactive). For the same molecule, the GI50 (UO-31) was 1.44 µM (inactive).
